Measurements published in patent US11793820B2, “Dry powder foamable formulations for delivery of medicaments through the mucosa” (priority 2021, dated 2023).

Key:
[1] = Safety and tolerability of the oral rinse; format: in vivo, human; conditions: for safe administration: 200 mg WR-2721 (10 ml 0.09 M) or 125 mg WR-1065 (10 ml 0.09 M)
Procedure: The amifostine is administered to the patient in the formulation described above (Table 2). Specifically, 125 mg of amifostine is provided as an oral rinse. The patient rinses for approximately one minute and thereafter, expels/discards the rinse. The rinse process can be repeated.
In this study, WR-1065 is detected in washed, isolated, vital mouth mucosa cells at a concentration of about 3.7-19.9 ng/10^5 cells.

[2] = after amifostine injection; cited from earlier work
[3] = cited from earlier work
[4] = intravenous administration; cited from earlier work
[5] = test system: epirubicin-induced oral mucositis; conditions: cited from earlier work

SMILES	safe administration [1]	systemic side-effects ([1]; oral rinse)	tolerability ([1]; oral rinse)	time of maximum tissue concentrations of WR-1065 [2]	pH of the maximal rate of hydrolysis ([3]; hydrolysis of P-S bond to WR-1065)	stability at the gastric pH ([3]; pH from 1 to 3)	clearance from the plasma [4]	difference between patients given amifostine oral rinse and control [5]
NCCCNCCS [WR-1065]	can be safely administered	no systemic side-effects	well-tolerated	within five to fifteen minutes				
NCCCNCCSP(=O)(O)O [Amifostine, S-2-(3-aminopropylamino) ethyl dihydrogen phosphorothioate]	can be safely administered				3.0	unstable	rapidly cleared	no significant difference
